Values of other authors in patent US20090306209A1, “ENTERIC-COATED FORMULATIONS OF POLYETHYLENE GLYCOL AND ONE OR MORE SOLUBLE AMINO ACIDS FOR ORAL INGESTION AND ENHANCED UPTAKE OF SAME” (priority 2008, published 2009).
Read-outs that look alike come from different tables or passages of the source.

Conditions: for solubility in water (in words): temperature not stated

Row | SMILES | solubility in water (in words) | also measured
1 | Cl.NC(=O)CC[C@H](N)C(=O)O [L-glutamine-HCl] | very soluble in water | 
2 | NC(=O)CC[C@H](N)C(=O)O [L-glutamine] |  | solubility in water (water at 30° C.): 5 grams/100 ml
3 | CC(C)C[C@H](N)C(=O)O.Cl [L-leucine.HCl] | very soluble in water | 
4 | CC(C)C[C@H](N)C(=O)O [L-leucine] |  | solubility in water (water at 25° C.): 2.4 g/100 ml
